# From patent US8962825B2, “Hydroxamates as inhibitors of histone deacetylase” (GlaxoSmithKline Intellectual Property Development Limited, priority 2006, dated 2015)
# Key:
# [1] = tested on: HeLa cells; experiment: HeLa cell inhibition assay (sulphorhodamine B cell viability); type: cell-based; conditions: Homo sapiens, 72 h, SRB
# Method: HeLa cells growing in log phase were harvested and seeded at 1000 cells/well (200 μl final volume) into 96-well tissue culture plates. Following 24 h of cell growth cells were treated with Compounds (final concentration of 20 μM). Plates were then re-incubated for a further 72 h before a sulphorhodamine B (SRB) cell viability assay was conducted according to the methodology described by Skehan et al, J. Natl. Canc. Inst., 1990, 82, 1107-1112.
# Data were expressed as a percentage inhibition of the control, measured in the absence of inhibitor, as follows:— % inhibition=100−[(S^i/S^o)×100] where S^i is the signal in the presence of inhibitor and S^o is the signal in the presence of DMSO.
# (§1) IC50 values were determined by non-linear regression analysis, after fitting the results of eight data points to the equation for sigmoidal dose response with variable slope (% activity against log concentration of Compound), using Graphpad Prism software.
# [2] = tested on: HUT cells; experiment: HUT cell inhibition assay (WST-1 cell viability); type: cell-based; conditions: 72-96 h
# Method: (§2) Cancer cell lines (U937 and HUT) growing in log phase were harvested and seeded at 1000-2000 cells/well (100 μl final volume) into 96-well tissue culture plates. Following 24 h of growth cells were treated with Compound. Plates were then re-incubated for a further 72-96 h before a WST-1 cell viability assay was conducted according to the suppliers (Roche Applied Science) instructions.
# (§3) Data were expressed as a percentage inhibition of the control, measured in the absence of inhibitor, as follows: % inhibition=100−[(S^i/S^o)×100] where S^i is the signal in the presence of inhibitor and S^o is the signal in the presence of DMSO.
# (§4) Dose response curves were generated from 8 concentrations (top final concentration 10 μM, with 3-fold dilutions), using 6 replicates.
# (§5) IC50 values were determined by non-linear regression analysis, after fitting the results to the equation for sigmoidal dose response with variable slope (% activity against log concentration of Compound), using Graphpad Prism software.
# [3] = target: T1, histone deacetylase activity (HeLa nuclear extract); experiment: Histone deacetylase activity (Biomol Fluor de Lys HDAC fluorescent activity assay); type: biochemical; conditions: Fluor de Lys substrate
# T1 construct: Histone deacetylase activity from crude nuclear extract derived from HeLa cells was used for screening
# Method: The ability of compounds to inhibit histone deacetylase activities was measured using the commercially available HDAC fluorescent activity assay from Biomol. In brief, the Fluor de Lys™ substrate, a lysine with an epsilon-amino acetylation, is incubated with the source of histone deacetylase activity (HeLa nuclear extract) in the presence or absence of inhibitor. Deacetylation of the substrate sensitises the substrate to Fluor de Lys™ developer, which generates a fluorophore. Thus, incubation of the substrate with a source of HDAC activity results in an increase in signal that is diminished in the presence of an HDAC inhibitor.
# Data are expressed as a percentage of the control, measured in the absence of inhibitor, with background signal being subtracted from all samples, as follows: % activity=[(S^i−B)/(S^o−B)]×100 where S^i is the signal in the presence of substrate, enzyme and inhibitor, S^o is the signal in the presence of substrate, enzyme and the vehicle in which the inhibitor is dissolved, and B is the background signal measured in the absence of enzyme.
# as §1
# Histone deacetylase activity from crude nuclear extract derived from HeLa cells was used for screening. The preparation, purchased from 4C (Seneffe, Belgium), was prepared from HeLa cells harvested whilst in exponential growth phase. The nuclear extract was prepared according to the methodology described by J. D. Dignam, Nucl. Acid. Res., 1983, 11, 1475-1489, snap frozen in liquid nitrogen and stored at −80° C. The final buffer composition was 20 mM Hepes, 100 mM KCl, 0.2 mM EDTA, 0.5 mM DTT, 0.2 mM PMSF and 20% (v/v) glycerol.
# [4] = tested on: U937 cells; experiment: U937 cell inhibition assay (WST-1 cell viability); type: cell-based; conditions: Homo sapiens, U-937, 72-96 h
# Method: as §2, §3, §4, §5
SMILES,IC50 [1] [nM],IC50 [3] [nM],IC50 [4] [nM],IC50 [2] [nM]
"CC(C)C[C@H](NC1CCN(c2ncc(C(=O)NO)cn2)CC1)C(=O)OC1CCCC1 [Example 1, Cyclopentyl N-{1-[5-(hydroxycarbamoyl)pyrimidin-2-yl]piperidin-4-yl}-L-leucinate]",> 3300,101 to 1000,< 330,331 to 3300
"O=C(NO)c1cnc(N2CC3C(CN[C@H](C(=O)OC4CCCC4)C4CCCCC4)C3C2)nc1 (stereo partly drawn) [Example 14, Cyclopentyl (2S)-cyclohexyl[({3-[5-(hydroxycarbamoyl)pyrimidin-2-yl]-3-azabicyclo[3.1.0]hex-6-yl}methyl)amino]acetate]",331 to 3300,< 100,331 to 3300,331 to 3300
"O=C(NO)c1cnc(N2CCC(CNCc3ccc(CN[C@H](C(=O)OC4CCCC4)C4CCCCC4)cc3)CC2)nc1 [Example 38, Cyclopentyl (2S)-cyclohexyl[(4-{[({1-[5-(hydroxycarbamoyl)pyrimidin-2-yl]piperidin-4-yl}methyl)amino]methyl}benzyl)amino]acetate]",< 330,< 100,< 330,331 to 3300
"O=C(NO)c1cnc(N2CCC(CN[C@H](C(=O)OC3CCCC3)C3CCCCC3)CC2)nc1 [Example 18, Cyclopentyl (2S)-cyclohexyl[({1-[5-(hydroxycarbamoyl)pyrimidin-2-yl]piperidin-4-yl}methyl)amino]acetate]",331 to 3300,< 100,< 330,331 to 3300

# Further lines, with some results ahead:
IC50 [1] [nM],IC50 [3] [nM],IC50 [4] [nM],SMILES,IC50 [2] [nM]
331 to 3300,< 100,331 to 3300,"O=C(NO)c1cnc(N2CC3C(CNCc4ccc(CN[C@H](C(=O)OC5CCCC5)c5ccccc5)cc4)C3C2)nc1 (stereo partly drawn) [Example 35, Cyclopentyl (2S)-[(4-{[({3-[5-(hydroxycarbamoyl)pyrimidin-2-yl]-3-azabicyclo[3.1.0]hex-6-yl}methyl)amino]methyl}benzyl)amino](phenyl)acetate]",331 to 3300
331 to 3300,< 100,< 330,O=C(NO)c1cnc(N2CCC(NCc3ccc(CN[C@H](C(=O)OC4CCCC4)c4ccccc4)cc3)CC2)nc1 [Example 29],331 to 3300
331 to 3300,< 100,< 330,"CC(C)C[C@H](NCc1ccc(CNC2CCN(c3ncc(C(=O)NO)cn3)CC2)cc1)C(=O)OC1CCCC1 [Example 27, Cyclopentyl N-{4-[({1-[5-(hydroxycarbamoyl)pyrimidin-2-yl]piperidin-4-yl}amino)methyl]benzyl}-L-leucinate]",< 330
